Test results taken from patent US11357766B2, “Compositions and methods for treating cancer” (Texas Tech University System, priority 2017, dated 2022).

System: orthotopically implanted PANC1-luc tumors
Assay: Orthotopic pancreatic tumor model
Type: in vivo
Procedure: 1×10^6 PANC-1 luc cells were surgically implanted on the pancreas of 4-6 week old female athymic nude mice (n=5). Mice were treated with 10 mg/kg pimavanserin tartrate at day 17 till day 69. In FIG. 5A tumor luminescence was measured about twice a week and plotted against days. Values are plotted as mean±SEM. In FIG. 5B orthotopic tumors were aseptically removed and the tumor size was compared between control and pimavanserin tartrate treated group. […] The average weight of the mice is plotted against days. Values are plotted as mean±SEM.
Orthotopic pancreatic tumor model. 4-6 week old female athymic nude mice were used for orthotopic injection. All the experiments were performed under the strict compliance and regulations approved from Institutional Animal Care and Use Committee (IACUC), Texas Tech University Health Sciences Center, Amarillo, Tex. Mice were anesthetized by using isoflorane and a minor incision was made in the left abdomen. Stably transfected luciferase-expressing PANC1 (PANC1-luc) cells were orthotopically-implanted in the pancreas. 1×10^6 exponentially growing PANC1-luc cells in 20 μl PBS suspension were injected into the sub-capsular region on the pancreas using a 30-gauge sterile needle. The peritoneum and skin incisions were closed sequentially with absorbable suture. Buprenorphine was administered as a pain killer to mice at every 8 hours for 2 days. The growth of orthotopically-implanted tumors was monitored by measuring the luminescence by IVIS imaging (Calliper Life Sciences). In order to determine the basal luminescence value, mice were imaged on the same day after injecting luciferin (3 mg/mouse, i.p.). Mice were randomly divided into two groups (control and treatment) on day 17 after orthotopic injection of PANC1 luc cells. Control group received vehicle only whereas treatment group received 10 mg/kg pimavanserin tartrate by oral gavage everyday. The study was terminated at day 69 by humanely euthanizing the mice using CO2 overdose. The mice was dissected and representative mouse from control and treatment groups were imaged for luminescence. The pancreas from control and treatment groups were aseptically excised out and snap frozen for western blot analysis, whereas few pancreas were fixed in formalin for immunohistochemical and TUNEL analysis. Mice weight was monitored once a week.
Pimavanserin inhibits the growth of orthotopic pancreatic tumors. In order to further validate the in-vivo efficacy of pimavanserin, PANC-1 luc cells were orthotopically implanted into the pancreas of athymic nude mice. After 17 days of tumor implantation, mice were treated with 10 mg/kg pimavanserin by oral gavage everyday. […] After terminating the experiment, tumors were removed and weighed. The average weight of pimavanserin treated tumors was 46% less when compared to the tumors excised form control group (FIGS. 5B & 5D). Furthermore, the inventors also compared the luminescence between both the groups in isolated pancreas.

Question: Which results are given for `CC(C)COc1ccc(CNC(=O)N(Cc2ccc(F)cc2)C2CCN(C)CC2)cc1` [pimavanserin, N-(4-fluorophenylmethyl)-N-(1-methylpiperidin-4-yl)-N′-(4-(2-methylpropyloxy)phenylmethyl)carbamide]?
Answer: overall weight of the mice vs control (general signs of toxicity) (10 mg/kg oral gavage everyday): did not reduce; suppression of orthotopic pancreatic tumor growth (10 mg/kg oral gavage everyday): 75%; total flux (luminescence) at the end of the experiment (10 mg/kg oral gavage everyday from day 17, day 69, control 1.45542×10^9 photons/second): 3.386×10^8 photons/sec; decrease of luminescence vs control group (10 mg/kg oral gavage everyday, end of the experiment): 75%; average weight of tumors, less than control group (10 mg/kg oral gavage everyday, excised tumors after terminating the experiment): 46%
